Biological target: T1, yeast channel-forming VDAC isoform (YVDAC1) (Saccharomyces cerevisiae, UniProt P04840)
T1 construct: gene POR1; native protein from detergent (NP-40) extract of mitochondrial fraction; about 30 kDa; identified by LC/MS/MS against SGD ORF translations
T1 sequence (P04840 2-283): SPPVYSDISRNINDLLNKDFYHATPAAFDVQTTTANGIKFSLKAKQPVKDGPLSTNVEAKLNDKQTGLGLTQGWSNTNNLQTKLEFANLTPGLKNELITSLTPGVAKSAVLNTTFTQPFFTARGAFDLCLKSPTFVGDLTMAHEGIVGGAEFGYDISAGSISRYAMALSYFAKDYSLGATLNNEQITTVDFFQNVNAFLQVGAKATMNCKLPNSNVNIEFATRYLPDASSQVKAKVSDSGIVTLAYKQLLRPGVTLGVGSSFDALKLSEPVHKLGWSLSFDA
Format: biochemical

COc1cc2c(cc1OC)OC(C)(C)C=C2 [Precocene II]
affinity magnetic beads, elution and competition with free compound, SDS-PAGE, L: identification of YVDAC1 as the precocene II-binding protein in the yeast S. cerevisiae

Reference: article PMC4527739 (PLoS ONE, 2015)
